# Values quoted from earlier work, collected in patent US8034838B2, “Composition and method for the treatment of neurological disorders” (priority 2008, dated 2011).
# How the values were obtained:
# [1] = after administration
# β-secretase = β-secretase (Homo sapiens, UniProt P56817)
# Sequence of β-secretase (P56817 46-501): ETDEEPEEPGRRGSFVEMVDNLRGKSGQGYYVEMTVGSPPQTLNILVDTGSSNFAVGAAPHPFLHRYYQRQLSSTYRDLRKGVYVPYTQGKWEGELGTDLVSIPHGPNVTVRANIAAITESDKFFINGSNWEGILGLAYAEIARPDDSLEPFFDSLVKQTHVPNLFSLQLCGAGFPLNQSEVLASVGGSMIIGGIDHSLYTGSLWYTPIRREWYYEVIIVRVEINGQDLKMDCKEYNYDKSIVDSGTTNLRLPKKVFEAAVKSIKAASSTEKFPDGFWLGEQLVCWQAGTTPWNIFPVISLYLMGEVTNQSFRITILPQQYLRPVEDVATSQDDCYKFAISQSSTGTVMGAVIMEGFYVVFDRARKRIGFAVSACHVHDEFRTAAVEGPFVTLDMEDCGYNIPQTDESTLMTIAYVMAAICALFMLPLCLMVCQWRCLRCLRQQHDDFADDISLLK
smiles,measurement,setting,value
"O=c1c(O)c(-c2cc(O)c(O)c(O)c2)oc2cc(O)cc(O)c12 [myricetin, Myricetin]",time to cross the blood brain barrier,[1],≤ 30 min
same,regulation of γ-secretase,γ-secretase,down-regulates
same,regulation of α-secretase,α-secretase,up-regulates
same,regulation of β-secretase,β-secretase,down-regulates
